How the values were obtained:
[1] = tested on: high-fat diet-fed C57BL/6J mouse; assay: Body weight, tissue weights and food intake in HFD-fed mice; type: in vivo, C57BL/6J mice; settings: HF + Feno: fenofibrate 250 mg/kg/day oral gavage 4 weeks
Excerpt: (§1) The 4-week old male C57BL/6J mice (total amount n=63) were obtained from the National Laboratory Animal Center (Taipei, Taiwan). After acclimatization for one week, all of the mice were randomly assigned into a control (CON) group and a high-fat diet (HFD) group. […] After HFD feeding for 8 weeks, the HFD group was randomly subdivided into six groups (n=9 per group) receiving different treatments and fed on HFD. […] The HF+AnK1, HF+AnK2, and HF+AnK3 groups are collectively termed AnK-treated HFD groups in the following examples. The CON mice were administered vehicle. All treatments were administered via oral gavage once daily. After administration for 4 weeks, all mice were fasted 12 hours, and blood was collected from the retro-orbital sinus under ether anesthesia. At the end of the experiment, the mice were sacrificed via carbon dioxide inhalation. Liver, adipose tissue, and skeletal muscle were collected and immediately stored at −80° C. for target gene analysis.
The metabolic parameters, including body weight, weight gain, and food intake, were performed as the following. Body weight was daily measured at the same time throughout the study. Body weight gain is considered as the weight difference between two consecutive days. The amount of pellet food was weighted, followed by weighting the amount of remaining food after 24 hours. The difference between the two weights is defined as daily food intake.

[2] = tested on: high-fat diet-fed C57BL/6J mouse; assay: Hepatic lipids in HFD-fed mice; type: in vivo, C57BL/6J mice; settings: HF + Feno: fenofibrate 250 mg/kg/day oral gavage 4 weeks
Description: as §1, with “Animal studies” for “The 4-week old male C57BL/6J mice (total amount n=63)”, “performed and approved under” for “obtained from”, “guidelines of the Institutional” for “National Laboratory”, “Care and Use Committee in Taiwan (12 Mar. 2015). […]” for “Center (Taipei, Taiwan).”, “group. For the following 12 weeks, the CON group (n=9) received a control diet or a low-fat diet (Diet 12450B, Research Diets, Inc., New Brunswick, N.J., USA), while the HFD group (n=54) received a high-fat diet (Diet 12451, Research Diets, New Brunswick, N.J., USA).” for “group.”

[3] = tested on: high-fat diet-fed C57BL/6J mouse; assay: Histopathology of epididymal white adipose tissue (adipocyte hypertrophy); type: in vivo, C57BL/6J mice; settings: mean area of epididymal adipocyte; HF + Feno: fenofibrate 250 mg/kg/day oral gavage 4 weeks, HFD-fed mice
Description: (§2) Animal studies were performed and approved under the guidelines of the Institutional Animal Care and Use Committee in Taiwan (12 Mar. 2015). The 4-week old male C57BL/6J mice (total amount n=63) were obtained from the National Laboratory Animal Center (Taipei, Taiwan). After acclimatization for one week, all of the mice were randomly assigned into a control (CON) group and a high-fat diet (HFD) group. For the following 12 weeks, the CON group (n=9) received a control diet or a low-fat diet (Diet 12450B, Research Diets, Inc., New Brunswick, N.J., USA), while the HFD group (n=54) received a high-fat diet (Diet 12451, Research Diets, New Brunswick, N.J., USA). The low-fat diet was composed of protein 20%, carbohydrate 70% and fat 10%, whereas the high-fat diet was composed of protein 20%, carbohydrate 35%, and fat 45% (of total energy, % kcal). After HFD feeding for 8 weeks, the HFD group was randomly subdivided into six groups (n=9 per group) receiving different treatments and fed on HFD. […] The HF+AnK1, HF+AnK2, and HF+AnK3 groups are collectively termed AnK-treated HFD groups in the following examples. The CON mice were administered vehicle. All treatments were administered via oral gavage once daily. After administration for 4 weeks, all mice were fasted 12 hours, and blood was collected from the retro-orbital sinus under ether anesthesia. At the end of the experiment, the mice were sacrificed via carbon dioxide inhalation. Liver, adipose tissue, and skeletal muscle were collected and immediately stored at −80° C. for target gene analysis.
(§3) Parts of visceral adipose and liver specimens were fixed with formalin (200 g/kg) neutral buffered solution and embedded in paraffin. A series of 8 μm-thick sections was cut and stained with hematoxylin and eosin. For microscopic examination, a microscope (Olympus BX51, Olympus, Tokyo, Japan) was used and the images were photographed.
Adipocyte hypertrophy, the pathological enlargement of adipocytes, is often found in subjects with type 2 diabetes and hyperlipidemia. To verify the therapeutic effect of AnK on adipocyte hypertrophy, morphology of the epididymal white adipose tissue from mice of the HF group and the AnK-treated HFD groups was examined. Micrographs (magnification 200X) of the EWAT sections for each group were shown in FIG. 4 and analyzed to determine the mean area of an epididymal adipocyte.

membrane GLUT4 [4] = assay: Western blotting of skeletal muscular membrane GLUT4 in HFD-fed mice; type: in vivo, C57BL/6J mice; settings: skeletal muscle, AnK 10, 20, 40, Feno 250, Metf 300 mg/kg/day, as compared with the HF group
Excerpt: as §1
About 0.1 g of liver tissue, skeletal muscle, or adipose tissue was used for the homogenate samples. Samples were powdered under liquid nitrogen and homogenized for 20 seconds in 500 μL buffer containing 20 mM Tris-HCl (pH 7.4 at 4° C.), 2% SDS, 5 mM EDTA, 5 mM EGTA, 1 mM dithiothreitol (DTT), 100 mM NaF, 2 mM sodium vanadate, 0.5 mM phenylmethylsulfonyl fluoride, 10 μg/mL leupeptin, and 10 μL/mL pepstatin. The total membrane fraction was used for measurement. The protein concentration in supernatant was determined with a BCA protein assay kit (Thermo Scientific, Rockford, Ill., USA). […] The membrane was blocked with 5% slim milk in Tris-buffered saline (TBS)(Amersham BioSciences, Uppsala, Sweden) containing 0.05% Tween-20 (Bio Rad, CA, USA) and incubated overnight at 4° C. with antibodies at 1:200 dilution. […] Immunoreactive bands were detected with ECL reagent kit (GE Healthcare BioSciences, Buckinghamshire, UK). The intensity of Western blot signals was analyzed using AlphaEase FC software (Alpha Innotech Corporation, Randburg, South Africa). […]

[5] = tested on: high-fat diet-fed C57BL/6J mouse; assay: Histopathology of liver (hepatocellular ballooning); type: in vivo, C57BL/6J mice; settings: grade 0 absence, 1 few cells, 2 many cells (Table 4); HF + Feno: fenofibrate 250 mg/kg/day oral gavage 4 weeks, HFD-fed mice
Description: as §2, §3
On the basis of previous study, the degree of hepatocellular ballooning is defined in TABLE 4: […]

[6] = tested on: phospho-Akt (Ser^473)/total-Akt; assay: Akt phosphorylation in C2C12 cells (Western blotting); type: cell-based; settings: AnK 1, 5, 10 and 25 μg/mL 30 min, insulin 100 nM 25 min, vs CON group
Description: (§4) For the in vitro assay, C2C12 skeletal myoblasts (ATCC CRL-1772) were cultured at 37° C. in Dulbecco's modified Eagle's medium (DMEM; Gibco BRL) supplemented with 10% fetal bovine serum (FBS; Hyclone) and 100 U/ml penicillin and 100 μg/ml streptomycin (Gibco BRL), and split 1:4 using 0.05% trypsin at 80% confluency. Myoblasts were diluted and placed in a 9 cm dish. Cells were cultured to achieve 80-90% confluency and refreshed with […] (2% FBS/DMEM) every 24 hours for 5-7 days. The term “confluency” refers to the proportion of the surface of a culture dish that is covered by adherent cells growing in the dish. 100% confluency refers to complete coverage of the surface by the cells.
(§5) Differentiated C2C12 cells were serum-starved in DMEM/BSA at 37° C. for 2 hours prior to incubation with AnK (at 1, 5, 10, and 25 μg/mL) or vehicle (0.2% dimethyl sulfoxide (DMSO) in saline) for 30 min or with 100 nM insulin for 25 min.
(§6) The abovementioned C2C12 cells were then washed three times with phosphate buffered saline (PBS) and divided into two groups. […]
(§7) Protein concentrations were determined via BCA assay (Pierce). […]
(§8) SDS polyacrylamide gel electrophoresis (SDS-PAGE) and Western blotting. Proteins were detected with antibodies specific for GLUT4, Akt, phospho-Akt (Ser^473), AMPK, and phospho-AMPK (Thr^172).

[7] = tested on: phospho-AMPK (Thr^172)/total-AMPK; assay: AMPK phosphorylation in C2C12 cells (Western blotting); type: cell-based; settings: AnK 1, 5, 10 and 25 μg/mL 30 min, insulin 100 nM 25 min, vs CON group
Description: as §4, §5, §6, §7, §8

membrane GLUT4 [8] = assay: Membrane GLUT4 expression in C2C12 cells (Western blotting); type: cell-based; settings: AnK 1, 5, 10 and 25 μg/mL 30 min, insulin 100 nM 25 min, vs CON group
Description: as §4, §5
The C2C12 cells of the other group were homogenized in a homogenization buffer having a pH value of about 7.4 and containing 250 mM sucrose, 50 mM Tris, and 0.2 mM edetic acid (EDTA). […]
as §7, §8

Compound | Absolute tissue weight BAT [1] | Absolute tissue weight EWAT [1] | Absolute tissue weight Liver [1] | Absolute tissue weight MWAT [1] | Absolute tissue weight RWAT [1] | Absolute tissue weight Skeletal muscle [1] | Absolute tissue weight Spleen [1] | Final body weight [1] | Weight gain [1] | Absolute tissue weight Visceral fat ([1]; sum of EWAT and RWAT) | Liver lipids total lipid [2] | Liver lipids triacylglycerol [2] | Adipocyte size [3] | increase of membrane GLUT4 levels (membrane GLUT4 [4]) | Hepatocellular ballooning Mean score [5] | expression ratio of phospho-Akt (p-Akt) to total-Akt (t-Akt) [6] | expression ratio of phospho-AMPK (p-AMPK) to total-AMPK (t-AMPK) [7] | protein expression of membrane GLUT4 (membrane GLUT4 [8])
CC(C)OC(=O)C(C)(C)Oc1ccc(C(=O)c2ccc(Cl)cc2)cc1 [Feno, fenofibrate, reference compound] | 0.157 ± 0.013 g | 0.603 ± 0.041 g | 1.700 ± 0.070 g | 0.247 ± 0.025 g | 0.181 ± 0.020 g | 0.428 ± 0.026 g | 0.084 ± 0.005 g | 27.55 ± 0.84 g | 0.57 ± 0.55 g | 0.784 ± 0.052 g | 64.9 ± 5.1 mg/g | 47.3 ± 4.6 µmol/g | 6304.2 ± 316.9 μm^2 | 1.98 fold | 0.5 ± 0.1 | – | – | –
insulin [reference compound] | – | – | – | – | – | – | – | – | – | – | – | – | – | – | – | higher | higher | enhanced
